Laboratory results reported in patent US8372810B2, “Anti-tumor drug, medicament, composition, and use thereof” (Gene Signal International SA, priority 2007, dated 2013).
Where “and” joins values, the source holds several entries; their conditions need not be identical. Equal entries are not always repeated. Entries after “also recorded” stand apart in the source; their conditions may differ.

Tests used:
HUVEC = assay: Wound assay, migration of human endothelial cells; type: cell-based; conditions: 18 hours; 497C-T2 0.83 and 1.66 μM; 497C-T3 2.4 μM; 497C-T4 3.52 μM; 497C-T5 3.65 μM; C-terminal tail 4.92 μM
Procedure: Cell migration was tested by the wound assay described by Sato and Rifkin (J Cell Biol. 1988; 107:1199) with few modifications. HUVEC grown in growth medium EGM-2MV (Cambrex) were seeded in 24-well plates at 80 000 cells per well in 500 μL of growth medium and grown to confluence at 37° C. in a humidified atmosphere containing 5% CO2. Cells were scrapped with a plastic tip on one line only. After wounding, the culture medium was changed for fresh medium (control, FIG. 3a) or fresh medium supplemented with: • FIG. 3b: 497C-T2 20 μg/mL (0.83 μM) • FIG. 3c: 497C-T2 40 μg/mL (1.66 μM) • FIG. 3d: 497C-T3 48 μg/mL (2.4 μM) • FIG. 3e: 497C-T4 60 μg/mL (3.52 μM) • FIG. 3f: 497C-T5 61 μg/mL (3.65 μM) • FIG. 3g: C-terminal tail 63 μg/mL (4.92 μM)
After 18 hours of culture, cells were observed and photographed under the inverted microscope (Analysis, Olympus, Rungis, France).

NCI H460 human tumor = NCI H460 human tumor xenograft in Swiss Nude mice, tumor growth; type: in vivo; set-up: key to MRTV D28 / MRTV D12 / MRTV D14 / MRTV D16 / MRTV D18 / MRTV D20 / MRTV D22 / MRTV D24 / MRTV D26: ratio of mean tumor volume at day t to volume at injection (D12)
Procedure: NCI H460 cells were cultured as adherent cells in complete RPMI 1640 medium (Ref. CM1RRM08-01, batch No. 623615, Eurobio, France) containing 2 mM L-Glutamine, adjusted to 4.5 g/L glucose (Ref. G7528, batch No. 033K0121, Sigma, France) and supplemented with 10 mM HEPES (Ref. H0887, batch No. 113K2338, Sigma, France), 1.0 mM sodium pyruvate (Ref. CSTVAT00-0U, batch No. 520818, Sigma, France) and 10% fetal calf serum (FCS; Ref. CVFSVF00-01, batch No. S13021, Eurobio, France) under a 37° C., 5% CO2 humidified atmosphere. They were amplified in 75 cm^2-flasks to reach 90×10^6 cells.
At D0, NCI H460 cells (human lung carcinoma) were collected from 75 cm^2-flasks by removing the medium and adding 3 ml of trypsine-EDTA (Ref. CEZTDA00-0U, batch No. 633920, Eurobio, France). After 5 min of incubation at 37° C., cells were detached from the plastic and the enzymatic reaction was stopped by adding 3 ml of RPMI 1640 medium containing 10% fetal calf serum. Cells were then centrifuged at 700 g for 5 min at room temperature. They were resuspended in serum-free RPMI 1640 culture medium containing L-Glutamine (2 mM), glucose (4.5 g/l), sodium pyruvate (1 mM) and buffered with HEPES (10 mM). Cells were counted and the number of viable NCI H460 cells was >99%. The number of cells was then adjusted to 25.10^6 cells/ml in serum-free medium.
NCI H460 cells (5.10^6 cells/mouse in 200 μL of serum-free medium) were then implanted subcutaneously in the right flank of each mouse.
At D12 post-implantation of the NCI H460 cells, the thirty mice were randomized into six groups of 5 mice. Tumor volumes had reached 228 to 468 mm^3 and mean tumor volumes were not statistically different between groups after randomization.
All solutions were injected IP.
Animals have been observed daily.
• Tumor growth curves were drawn using the mean tumor volumes (MTV), • Mean Relative tumor volume (MRTV) was calculated as the ratio between the MTV at time t and the volume at the time of injection (t=D12), • Tumor growth inhibition (T/C, %) was evaluated as the ratio of the median tumor volumes of treated groups versus vehicle group.
Statistical analyses of tumor volumes (V), time to reach ‘V’, tumor-doubling time (DT), relative tumor volume (RTV) and tumor growth inhibition (T/C) were performed for all groups. Data are expressed as mean±SD. Groups of data were normally distributed. Univariate analysis were performed to assess differences between groups. Statistical significance was then determined using the Student's t test. A P<0.05 was considered as statistically significant. The Statistical analysis was performed using XLSTAT (Addinsoft, France).

CALU-6 tumors = assay: CALU-6 non-small cell lung cancer xenograft in Swiss Nude mice, tumor growth; type: in vivo; conditions: IP Q2DX8, CDDP 5 mg/kg (G2), 497C-T2 10 mg/kg (G3), 497C-T2 10 mg/kg + CDDP 5 mg/kg (G4)
Procedure: CALU-6 cells were cultured as adherent cells in complete EMEM medium (Ref. CM1MEM18-01, batch No. 462502, Eurobio, France) 10% fetal calf serum (FCS; Ref. CVFSVF00-01, batch No. 513021, Eurobio, France) under a 37° C., 5% CO2 humidified atmosphere. They were amplified in 75 cm^2-flasks to reach 90×10^6 cells.
At D0, CALU-6 cells (human lung carcinoma) were collected from 75 cm^2-flasks by removing the medium and adding 3 ml of trypsine-EDTA (Ref. CEZTDA00-0U, batch No. 633920, Eurobio, France). After 5 min of incubation at 37° C., cells had detached from the plastic and the enzymatic reaction was stopped by adding 3 ml of EMEM medium containing 10% fetal calf serum. Cells were then centrifuged at 700 g for 5 min at room temperature. They were resuspended in serum-free EMEM culture medium. Cells were counted and viability assessment by Trypan Blue exclusion (Ref. CSTCOL03-OU, batch No. 434511, Eurobio, France). The number of viable CALU-6 cells was >99%. The number of cells was then adjusted to 25×10^6 cells/ml in serum-free medium.
CALU-6 cells 5×10^6 cells/mouse in 200 μl of serum-free medium) were then implanted subcutaneously in the right flank of each mouse.
At D12 post-implantation of the CALU-6 cells, the thirty mice were randomized into six groups of 5 mice. Tumor volumes had reached 228 to 468 mm^3 and mean tumor volumes were not statistically different between groups after randomization.
Mean tumor volumes (MTV), mean relative tumor volume (MRTV) and tumor growth inhibition (T/C) were calculated as for example 7.

[1] = IP Q2DX8, CDDP 5 mg/kg (G2), 497C-T2 10 mg/kg (G3), 497C-T2 10 mg/kg + CDDP 5 mg/kg (G5)

## 497C-T4: d1, d2 and e domains of the LEL domain of protein 497C, SEQ ID NO:5 (49 amino acids) (IPPSCCMNETDCNPQDLHNLTVAATKVNQKGCYDLVTSFMETNMGIIAG; listed as Homo sapiens)
HUVEC
  inhibition of endothelial cell migration: less active than 497C-T2; also recorded: limited activities relative to that of 497C-T2

## 497C-T5: d2 and e domains of the LEL domain of protein 497C, SEQ ID NO:6 (43 amino acids) (MNETDCNPQDLHNLTVAATKVNQKGCYDLVTSFMETNMGIIAG; listed as Homo sapiens)
HUVEC
  inhibition of endothelial cell migration: very limited anti-migratory activity; also recorded: limited activities relative to that of 497C-T2

## N.N.[Cl][Pt][Cl] [Cisplatin, cis-diamineplatinum (II) dichloride, reference compound]
NCI H460 human tumor; D28, CDDP 5 mg/kg IP Q2DX8 (G2)
  reduction of tumor size compared to the vehicle-treated group 1: 68%
NCI H460 human tumor; [1]
  DT (doubling time of tumor volume): 5.12 ± 2.89 days and 5.12 days
  MRTV D14: 1.59
  MRTV D16: 1.74
  MRTV D18: 2.30
  MRTV D20: 2.29
  MRTV D22: 3.39
  MRTV D24: 3.67
  MRTV D26: 3.67
  MRTV D28: 4.88
  MTV at D14: 513.35 mm^3
  MTV at D24: 1083.74 mm^3
  MTV at D28: 1440±1097 mm^3 and 1440.18 mm^3
NCI H460 human tumor; reference day, IP Q2DX8, CDDP 5 mg/kg (G2), 497C-T2 10 mg/kg (G3), 497C-T2 10 mg/kg + CDDP 5 mg/kg (G5)
  MRTV D12: 1.00
CALU-6 tumors
  MRTV D14: 3.11
  MRTV D16: 2.39
  MRTV D18: 2.66
  MRTV D20: 3.08
  MRTV D22: 3.70
  MRTV D24: 4.84
  MRTV D26: 4.11
  MRTV D28: 5.98
  MTV at D28: 742.44±215.85 mm^3
CALU-6 tumors; reference day
  MRTV D12: 1

B1: 497C-T3: c, d1, d2 and e domains of the LEL domain of protein 497C, SEQ ID NO:4 (74 amino acids) (protein, listed as Homo sapiens)
chain: QRSLSCCGVQNYTNWSTSPYFLEHGIPPSCCMNETDCNPQDLHNLTVAATKVNQKGCYDLVTSFMETNMGIIAG
HUVEC
  inhibition of endothelial cell migration: inhibited cell migration similarly to the protein 497C-T2; also recorded: almost as potent than 497C-T2
